Legend:
Collagen 3a = assay: mRNA expression in fibroblast cultures (qRT-PCR): collagen 3; assay type: cell-based, human
Method: (§1) Cells were seeded into 24-well plates and incubated with compounds in the presence or absence of wound exudates for 72 hours. Total RNA was isolated using the RNeasy Mini Kit (QIAGEN #74106) according to the manufacturer's protocol. RNA integrity and concentration for each sample was confirmed and measured with the Qubit fluorometer. Each RNA sample was then diluted to 2 ng/μl in nuclease-free doubly distilled water.
(§2) 20 ng of total RNA were reverse-transcribed into cDNA and immediately subjected to PCR amplification using the SuperScript Ill Platinum One-Step Quantitative RT-PCR System with ROX (Invitrogen #11745). qRT-PCR amplifications were performed in 20 μl reactions containing 9 μl 2× Reaction Mix with ROX, 0.4 μl SuperScript III RT/Platinum Taq Mix and 1 μl primer (final: 900 nM, Taqman Gene Expression Assay, Applied Biosystems)
(§3) The program included 30 minutes of reverse transcription at 48° C., an initial denaturation for 5 minutes at 95° C. followed by 40 cycles of denaturation at 95° C. for 15 seconds and annealing at 60° C. for 60 seconds. Reactions were set up in 96-well format PCR plates (Peqlab #732-2879) and carried out in a Mx3005P Real-Time PCR Detection System (Stratagene).
(§4) TaqMan Gene Expression Assays (Applied Biosystems) were used, which include preoptimized probe and primer sets specific for the genes being validated. The sequences and ID numbers are listed below:
(§5) The house keeping gene elongation factor 1a (EF1a) was used as a reference gene. Normalized expression was calculated using the comparative Ct (or ΔCt) method, and fold changes were derived from the 2-ΔΔCt values for each gene. Graphs were prepared using relative Ct values that were calculated by subtracting the EF1a Ct values from the corresponding Ct values for the gene being measured.

IL-8 [1] = assay: U937 cell stimulation assay (LPS-induced IL-8); assay type: cell-based, human; conditions: LPS 100 ng/ml, 16 hours (FIG. 16A)
Method: The human monocytic cell line U937 (ATCC CRL 1593) was routinely grown in RPMI_1640 supplemented by 10% FCS and 2 mM glutamine, and 100 U/ml penicillin/100 μg/ml streptomycin. Cells were seeded at 4×10^5/ml in 50 μl/well of a 384-well plate and combined cells with graded concentrations of test compounds and LPS at 100 ng/ml. After 16 hours, the supernatants were transferred to fresh plates and frozen at −20° C. for IL-8 analysis, using a commercial ELISA kit.

IL-1β = IL-1β secretion into the supernatant in the fibroblast proliferation assay (ELISA); assay type: cell-based, human; conditions: WE-1 (FIG. 2B, 9B), graded concentrations
Method: Primary human dermal fibroblasts (HDF) were purchased from CELLnTEC, Bern. They were routinely grown in Dulbecco's modified Eagle's medium (DMEM) containing 10% FCS, 2 mM glutamine, and 100 U/ml penicillin/100 μg/ml streptomycin. Media, antibiotics, and glutamine were bought from Lonza. The cells were used at passage 5-15. Cells were trypsinized and seeded at 2500 cells/well in 30 μl into the inner wells of 384-well plates in the absence or presence of graded compound concentrations with or without different dilutions of sterile-filtered WE in medium. For control samples, 30 μl medium was added instead of specific stimuli. The outer wells were loaded with sterile water. The cells were incubated for 72 hours at 37° C.
At the end of the incubation period, supernatants were removed for the determination of IL-1β, and the cells were fixed with 4% paraformaldehyde (Morphisto) for 15 minutes at room temperature and washed 3 times with PBS. A control plate was fixed after the overnight adherence of the cells (day 1) to determine the starting cell number.
IL-1β levels were determined with a commercial ELISA kit. The amount of IL-1β contained in the wound exudate added to the cells was subtracted from the total IL-B in the supernatants in order to determine the cytokine secreted by the cells.

[2] = tested on: human dermal fibroblast (HDF) cells; assay: Fibroblast-derived matrix formation (FDM) assay, 3D fibroblast culture; assay type: cell-based
Method: Human dermal fibroblast (HDF) cells were seeded at 1250 cells/well on day −3 into 384-well tissue culture plates, which had been pre-coated for 1 hour at 37° C. with 0.2% gelatin solution (Sigma). When the cells reached confluence (=day 0), a matrix promoting supplement (vitamin C: 2-phospho-L-ascorbic acid trisodium salt, 100 μg/ml; Sigma) was added together with test samples containing TGF-β1 or graded concentrations of compounds −/+WE as described for the HDF proliferation assay. After 4 days, medium was replaced by fresh vitamin C—and stimulus—as well as compound-containing medium, maintaining the conditions initiated on day 0. TGF-β1 was included as a positive control to promote FDM formation. After a total incubation time of 7 to 8 days, FDM production was measured in fixed cultures via SRB staining and evaluated as described above. In some cases, the experiment was stopped and evaluated already on day 4.

IL-8 [3] = assay: Primary human monocyte cytokine secretion assay (spontaneous IL-8); assay type: cell-based; conditions: 16 hours (FIG. 16B)
Method: Primary human monocytes were prepared from peripheral blood mononuclear cells (PBMC). PBMC were isolated from buffy coats obtained from the Red Cross, Vienna, using LymphoPrep (Technoclone). 30 ml of buffy concentrate was diluted 1:2 with PBS, gently underlayered with 15 ml Lymphoprep in a 50 ml Falcon tube and centrifuged for 25 minutes at 1800 rpm at 21° C. The interphase was carefully transferred to a new Falcon tube and filled up to 50 ml with ice cold PBS. After another centrifugation step (10 minutes, 1200 rpm, 4° C.), the cell pellet was washed 3 times with PBS, resuspended in RPMI medium containing 20% FCS and 10% DMSO and frozen in liquid nitrogen. Monocytes were generated from frozen aliquots using positive selection with the CD14 Beads-Kit (Miltenyi) on an autoMACS-Sorter (Miltenyi) according to the manufacturer's instructions.
Cells were seeded at 8×10^5/ml in 50 μl/well of a 384-well plate and combined cells with graded concentrations of test compounds. After 16 hours, the supernatants were transferred to fresh plates and frozen at −20° C. for IL-8 analysis, using a commercial ELISA kit.

Collagen 1a = assay: mRNA expression in fibroblast cultures (qRT-PCR): collagen 1; assay type: cell-based, human
Method: as §1, §2, §3, §4, §5

[4] = medium in the absence of WE, 72-hour incubation

| Structure (SMILES) | collagen 3 mRNA expression (Collagen 3a; [4]) | LPS-induced IL-8 secretion in U937 cells (IL-8 [1]) | IL-1β secretion into the supernatant (IL-1β) | formation of fibroblast-derived matrix (3D) ([2]; WE from patient #92 (FIG. 12)) | spontaneous IL-8 secretion in human monocytes (IL-8 [3]) | collagen 1 mRNA expression (Collagen 1a; [4]) | collagen 3 mRNA expression (Collagen 3a; WE-2, 1 μM, 72-hour incubation (FIG. 3B)) | formation of fibroblast-derived matrix (3D) ([2]; WE-1, graded concentrations (FIG. 4)) | collagen 1 mRNA expression (Collagen 1a; WE-2, 1 μM, 72-hour incubation (FIG. 3A)) |
| --- | --- | --- | --- | --- | --- | --- | --- | --- | --- |
| CCS(=O)(=O)c1cc2cc(C[C@@](O)(CC(C)(C)c3ccc(F)cc3C(N)=O)C(F)(F)F)[nH]c2cn1 [BI-3047] | reduction of collagen 3 mRNA with medium | even induced IL-8 secretion at the highest concentrations | much less effect on IL-1β secretion | did not induce matrix formation | even induced IL-8 secretion at the highest concentrations | no significant effect on collagen 1 mRNA in the presence of medium |  |  |  |
| CCS(=O)(=O)c1cc2cc(C[C@](O)(CC(C)(C)c3ccc(F)cc3C(N)=O)C(F)(F)F)[nH]c2cn1 [BI-653048, (R)-2-(4-((5-(Ethylsulfonyl)-1H-pyrrolo[2,3-c]pyridin-2-yl)methyl)-5,5,5-trifluoro-4-hydroxy-2-methylpentan-2-yl)-5-fluorobenzamide] | reduction of collagen 3 mRNA with medium | inhibited both LPS-induced and spontaneous IL-8 secretion | inhibited IL-1β secretion at the same concentrations |  | inhibited both LPS-induced and spontaneous IL-8 secretion | no significant effect on collagen 1 mRNA in the presence of medium | induced mRNA expression of both collagens 1 and 3 in the presence of wound exudate | effective in inducing matrix formation in the presence of wound exudate | induced mRNA expression of both collagens 1 and 3 in the presence of wound exudate |
